In one experiment the target is PAK1 (Homo sapiens, UniProt Q13153). Description: Z'Lyte fluorescence-based (FRET) kinase assay, PAK1. The note with it: 50 μM ATP (Km apparent), 1 hr room temperature. Format: biochemical. The protocol: (§1) A fluorescence-based assay format is used to determine IC50 values of test compounds in vitro. Purified PAK kinase is incubated with ATP, and a test compound at various concentrations and a substrate peptide containing two fluorophores. In a second step, the reaction mix is incubated with a site-specific protease that cleaves non-phosphorylated but not phosphorylated substrate peptide, disrupting the FRET signal generated by the two fluorophores in the cleaved peptide (Z'Lyte™ Kinase assay platform; Life Technologies).
Chain of PAK1 (Q13153 whole entry): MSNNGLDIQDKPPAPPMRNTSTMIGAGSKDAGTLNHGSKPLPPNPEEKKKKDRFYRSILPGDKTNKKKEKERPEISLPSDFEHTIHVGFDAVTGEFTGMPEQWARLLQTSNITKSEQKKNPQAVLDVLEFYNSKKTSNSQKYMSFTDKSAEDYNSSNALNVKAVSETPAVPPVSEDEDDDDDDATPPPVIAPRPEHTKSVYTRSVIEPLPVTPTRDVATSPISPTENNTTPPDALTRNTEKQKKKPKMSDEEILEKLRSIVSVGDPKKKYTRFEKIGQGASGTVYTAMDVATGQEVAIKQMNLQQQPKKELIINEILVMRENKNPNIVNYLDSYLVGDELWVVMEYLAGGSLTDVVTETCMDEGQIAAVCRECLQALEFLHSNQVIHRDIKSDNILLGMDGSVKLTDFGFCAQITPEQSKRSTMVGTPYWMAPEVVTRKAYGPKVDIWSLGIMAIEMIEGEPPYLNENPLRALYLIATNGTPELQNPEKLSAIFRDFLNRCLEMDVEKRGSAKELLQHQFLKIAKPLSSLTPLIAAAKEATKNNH
(§2) Reagents: 50 mM HEPES, pH 7.5; 0.01% BRIJ-35; 10 mM MgCl2; 1 mM EGTA, 2 uM substrate peptide Ser/Thr20 (proprietary Life Technologies Sequence), PAK enzyme [2.42-30.8 ng for PAK1, 0.29-6 ng for PAK2, 1.5-20 ng for PAK3 and 0.1-0.86 ng for PAK4; actual enzyme amounts depend on lot activity of the enzyme preparation]
(§3) Test compounds are dissolved in DMSO at various concentrations; the final DMSO concentration in the assay reaction is 1%.
(§4) ATP concentration at Km apparent is used in the assay [50 ? M ATP for PAK1 assay, 75 ? […]
(§5) Plates are analyzed in a standard fluorescence plate reader (Tecan or equivalent) using an excitation wavelength of 400 nm and emission wavelengths of 445 nm and 520 nm Inhibition of kinase reaction is determined by emission ratio=emission@ 445 nm/emission@ 520 nm

In the next experiment the target is PAK2 (Homo sapiens, UniProt Q13177). Description: Z'Lyte fluorescence-based (FRET) kinase assay, PAK2. The note with it: 75 μM ATP (Km apparent), 1 hr room temperature. Format: biochemical. The protocol:
as §1, §2, §3, §4, §5

The target of the next experiment is PAK3 (Homo sapiens, UniProt O75914). Description: Z'Lyte fluorescence-based (FRET) kinase assay, PAK3. Format: biochemical. The note with it: 100 μM ATP (Km apparent), 1 hr room temperature. The protocol:
as §1, §2, §3, §4, §5

For another experiment, the target named is PAK4 (Homo sapiens, UniProt O96013). Description: Z'Lyte fluorescence-based (FRET) kinase assay, PAK4. Format: biochemical. The note with it: 5 μM ATP (Km apparent), 1 hr room temperature. The protocol: as §1, §2, §3, §4, §5
Chain of PAK4 (O96013 whole entry): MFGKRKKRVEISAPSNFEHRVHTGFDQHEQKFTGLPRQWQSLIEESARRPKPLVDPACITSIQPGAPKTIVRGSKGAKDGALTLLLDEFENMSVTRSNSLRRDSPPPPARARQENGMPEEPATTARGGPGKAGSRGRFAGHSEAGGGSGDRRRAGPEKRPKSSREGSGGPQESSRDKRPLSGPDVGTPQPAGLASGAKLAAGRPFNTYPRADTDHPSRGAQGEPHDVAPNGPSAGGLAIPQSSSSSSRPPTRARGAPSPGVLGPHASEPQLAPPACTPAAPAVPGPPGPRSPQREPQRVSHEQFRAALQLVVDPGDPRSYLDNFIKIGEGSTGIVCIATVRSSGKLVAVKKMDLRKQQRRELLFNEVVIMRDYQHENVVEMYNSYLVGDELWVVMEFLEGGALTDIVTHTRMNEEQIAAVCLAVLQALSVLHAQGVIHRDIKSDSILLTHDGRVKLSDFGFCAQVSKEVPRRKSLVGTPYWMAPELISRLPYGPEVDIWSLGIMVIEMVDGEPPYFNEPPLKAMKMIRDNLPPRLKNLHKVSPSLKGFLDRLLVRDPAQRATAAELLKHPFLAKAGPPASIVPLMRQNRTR
The test system of experiment [1] is C57/black 6 mice temporal cortex slices. Description: Slice electrophysiology assay (LTP in cortical slices). The note with it: 1 μM compound; theta-burst stimulation protocol; temporal cortex slices of C57/black 6 mice. Format: cell-based. The protocol:
Materials: coronal cortical slices (400 μam) containing temporal cortex from 2- to 3-month-old C57-Black-6 mice male littermates (from Elevage Janvier, FRANCE) are prepared and allowed to recover in oxygenated (95% O2 and 5% CO2) warm (30° C.) artificial cerebrospinal fluid (ACSF) containing 124 mM NaCl, 5 mM KCl, 1.25 mM, NaH2PO4, 1 mM MgCl2, 2 mM CaCl2, 26 mM NaHCO3, and 10 mM dextrose.
Compound dilution: a 10 mM DMSO stock solution is prepared for each test compound and 100 μL aliquots are stored at −20° C. On the day of experiment an aliquot is thawed and vortexed for fresh solutions preparation. […]
LTP: a stimulus is applied every 30 s with an intensity settled at 40% of the maximal amplitude responses. […] Potentiation of synaptic transmission is then monitored for an additional 40 minutes period. […]
Compound evaluation: following a 10 minutes control recording period (to verify baseline stability), the compound is perfused for 20 minutes. Then, LTP is triggered and the fEPSP amplitude will be recorded for an additional 40 minutes period in the presence of compound.
Data analysis: fEPSP amplitudes are measured as the difference between the baseline (before stimulation) and the maximal peak amplitude. The fEPSP are normalized as a percent of the mean averaged amplitude recorded over a 10 min control period, before compound application. […]

Chain of PAK2 (Q13177 whole entry): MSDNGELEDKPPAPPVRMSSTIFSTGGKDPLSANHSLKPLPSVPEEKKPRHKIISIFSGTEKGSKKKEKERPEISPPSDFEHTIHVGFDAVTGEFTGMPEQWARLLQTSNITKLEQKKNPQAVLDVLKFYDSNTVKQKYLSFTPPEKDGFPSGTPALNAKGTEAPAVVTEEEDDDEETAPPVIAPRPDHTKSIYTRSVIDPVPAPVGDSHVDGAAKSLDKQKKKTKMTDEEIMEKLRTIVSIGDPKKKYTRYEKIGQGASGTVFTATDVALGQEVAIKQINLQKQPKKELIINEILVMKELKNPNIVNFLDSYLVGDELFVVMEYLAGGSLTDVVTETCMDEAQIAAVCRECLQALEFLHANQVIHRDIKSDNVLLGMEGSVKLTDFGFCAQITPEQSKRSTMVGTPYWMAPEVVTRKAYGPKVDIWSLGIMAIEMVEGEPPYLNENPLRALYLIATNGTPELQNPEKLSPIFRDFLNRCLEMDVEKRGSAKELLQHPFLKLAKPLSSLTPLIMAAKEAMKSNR
Chain of PAK3 (O75914 whole entry): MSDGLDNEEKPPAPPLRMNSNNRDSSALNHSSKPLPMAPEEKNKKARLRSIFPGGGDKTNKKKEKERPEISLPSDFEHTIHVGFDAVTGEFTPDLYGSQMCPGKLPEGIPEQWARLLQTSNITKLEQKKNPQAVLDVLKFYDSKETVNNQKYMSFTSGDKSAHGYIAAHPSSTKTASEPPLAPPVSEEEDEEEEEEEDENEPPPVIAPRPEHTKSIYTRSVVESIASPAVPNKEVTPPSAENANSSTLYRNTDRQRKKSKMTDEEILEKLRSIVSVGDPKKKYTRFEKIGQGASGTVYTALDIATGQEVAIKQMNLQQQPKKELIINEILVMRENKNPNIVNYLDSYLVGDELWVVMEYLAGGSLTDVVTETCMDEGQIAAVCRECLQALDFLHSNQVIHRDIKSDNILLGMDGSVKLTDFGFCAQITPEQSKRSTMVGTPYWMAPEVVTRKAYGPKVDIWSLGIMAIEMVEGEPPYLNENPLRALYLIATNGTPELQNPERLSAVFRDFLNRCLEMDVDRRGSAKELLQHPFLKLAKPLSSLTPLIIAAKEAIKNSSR

A word on the IC50: it is the concentration that inhibits the measured activity by half. On to `CCOc1ccccc1Cn1c(=O)ccc2cnc(Nc3ccc(N4CCN(C)CC4)cc3)nc21` [Compound 62], for which the 50% inhibitory concentration (IC50) on PAK1 was below 1000 nM; on PAK2, below 1000 nM; at PAK3, below 1000 nM; at PAK4, 1000 to 10000 nM.
With `COc1cc(Nc2nccc(-c3ccc(NCCN)nc3)n2)cc(OC)c1OC` [Compound A], in experiment [1], the “LTP compared to the baseline (fEPSP amplitude)” value is on record as “increased LTP”.
For `CN1CCN(c2ccc(Nc3ncc4ccc(=O)n(C5CCCC5)c4n3)cc2)CC1` [Compound G, 8-cyclopentyl-2-(4-(4-methylpiperazin-1-yl)phenylamino)pyrido[2,3-d]pyrimidin-7(8H)-one], the “LTP compared to the baseline (fEPSP amplitude)” value in experiment [1] was “increased LTP”.

Values taken from US20130059824A1, “METHODS FOR TREATING MILD COGNITIVE IMPAIRMENT” (AFRAXis, Inc., priority 2009, published 2013).
